From patent EP3598902A1, “VITAMIN B2 AND ITS USE” (Société des Produits Nestlé S.A., priority 2014, dated 2016) come the findings set out here.

The experiment has as its system L6 differentiated muscle cells. The experiment is described as follows: glucose uptake (radiolabelled 2-deoxy-D-[1,2 3H] glucose) in differentiated muscle cells, absence of insulin. Type of experiment: cell-based. Particulars: ingredient G 1 µM, ingredient K 10 nM, versus control or basal condition. On the procedure:
Ingredient G refers to vitamin B2, ingredient k refers to 1,25-dihydroxyvitamin D3, and ingredient J refers to zinc chloride.
Ingredient G was tested at 1 µM. Ingredient K was tested at 10 nM, and ingredient J was tested at 20 µM.
Each ingredient was tested in triplicate.

As to `Cc1cc2nc3c(=O)[nH]c(=O)nc-3n(C[C@H](O)[C@H](O)[C@H](O)CO)c2cc1C` [ingredient G, vitamin B2], the glucose uptake result is listed as “increases in glucose uptake were observed” (long term incubation (24 hrs)) and “increases in glucose uptake were observed” (short term incubation (2 hrs), ingredient J 20 µM).
